In US20210087533A1, “CANINE EPITHELIAL ORGANOIDS AND METHODS OF MAKING, RECOVERING, AND USE” (Iowa State University Research Foundation, Inc., priority 2019, published 2021):

How the values were obtained:
TCC organoids [1] = assay: MTT cell viability (cytotoxicity) assay, TCC organoids; format: cell-based, canine; settings: for effect on TCC cell viability (MTT assay): old, much passaged TCC organoids
Method: Transitional Cell Carcinoma (TCC) Organoid Isolation and Culture. Canine bladder cancer cells for TCC organoids were isolated from urine (TCC #1) or biopsies (TCC #2) of dogs with transitional cell carcinoma. Briefly, urine was centrifuged and washed or small biopsies were washed with 1×Complete Chelation Solution (CCS) and vortexing up to 6 times, then incubated in 20-30 mM EDTA for 1 hour at 4° C. on a rocker. FBS and CCS was added to stop EDTA chelation, mixed, and the supernatant containing cancer cells was put in a new tube. Samples were centrifuged at 150 g for 5 minutes at 4° C., resuspended in DMEM/F12, centrifuged again, and the pellet was resuspended in 120 ul […]®. […]® droplets were then plated at 30 ul/well […]®/cells on 24-well plates. Complete Media with Growth Factors (CMGF+) containing Rock inhibitor and GSK inhibitor was added for 2-3 days at 37 C, and after 2-3 days, TCC organoids were cultured in CMGF+ media without inhibitors. TCC organoids were passaged every 4-7 days with TrypLE Express to dissociate organoids to single cells.
MTT Cell Viability Assay (Cytotoxicity Assay). Organoids from healthy intestine or transitional cell carcinoma (TCC) were dissociated and plated at equal density in 30 ul/well […]® in 24-well plates in 500 ul/well CMGF+ growth medium. On Day 1-4 after passage, organoids were incubated with the indicated drug for 48 or 96 hours. Cytotoxicity was determined using 3-(4,5-dimethylthiazol-2-yl) 2,5-diphenyl tetrazolium bromide (MTT) at a final concentration of 0.5 mg/mL for 1.5 hr. After medium removal, 200 ul/well cold DMSO was used to dissolve the formazan dye crystals and absorbance was read at 570 nm using a plate reader (SpectraMax 190, Molecular Devices).
As DMSO freezes […] but it is preferable to use cold media (4° C.) to dissolve the […]®. Thus, put DMSO briefly in 4° C. fridge or −20° C. freezer and remove before it all freezes, then use cold DMSO, pipette up and down vigorously, shake the plate, put plate in freezer briefly, etc. to try to get the […]® and formazan dye crystals to dissolve.

TCC organoids [2] = assay: Ki-67 IHC staining (proliferation) of TCC organoids; format: cell-based, canine
canine UC organoids = assay: MTT assay for metabolic activity of urine-derived UC organoids; format: cell-based; settings: incubation for 24-48 hours
Method: Free-catch urine was collected from one dog at time of UC diagnosis. Samples were centrifuged and supernatant was removed. The resulting pellet was washed with phosphate-buffered saline (PBS), then incubated in complete chelating solution (CCS) with EDTA and plated in […]® for establishment of organoid culture within one week. Sub-samples of differentiated UC organoids were taken for 3-(4,5-dimethylthiazol-2-yl)-2,5-diphenyltetrazolium bromide (MTT) assay for metabolic activity assessment after incubation with chemotherapeutic agents. Remaining UC organoids were characterized with H&E, RNA in-situ hybridization (RNA-ISH), and immunohistochemistry (IHC) staining techniques.

TCC organoids [3] = assay: Morphology of treated TCC organoids; format: cell-based, canine; settings: fenoldopam-treated TCC organoids
P-gp = biological target: T1, P-gp (Canis lupus familiaris, UniProt C0KKU9); assay: Rhodamine 123 (Rh123) transport in canine ileal enteroids; format: cell-based; settings: Rh123 1-50 μM, 30 min incubation, without verapamil
T1 construct: Therefore, P-gp of the enteroids have maintained their transportation ability; endogenous in cells; host or cells: canine ileal enteroids (3D organoids from adult intestinal stem cells of dogs)
T1 sequence (C0KKU9 1-1281): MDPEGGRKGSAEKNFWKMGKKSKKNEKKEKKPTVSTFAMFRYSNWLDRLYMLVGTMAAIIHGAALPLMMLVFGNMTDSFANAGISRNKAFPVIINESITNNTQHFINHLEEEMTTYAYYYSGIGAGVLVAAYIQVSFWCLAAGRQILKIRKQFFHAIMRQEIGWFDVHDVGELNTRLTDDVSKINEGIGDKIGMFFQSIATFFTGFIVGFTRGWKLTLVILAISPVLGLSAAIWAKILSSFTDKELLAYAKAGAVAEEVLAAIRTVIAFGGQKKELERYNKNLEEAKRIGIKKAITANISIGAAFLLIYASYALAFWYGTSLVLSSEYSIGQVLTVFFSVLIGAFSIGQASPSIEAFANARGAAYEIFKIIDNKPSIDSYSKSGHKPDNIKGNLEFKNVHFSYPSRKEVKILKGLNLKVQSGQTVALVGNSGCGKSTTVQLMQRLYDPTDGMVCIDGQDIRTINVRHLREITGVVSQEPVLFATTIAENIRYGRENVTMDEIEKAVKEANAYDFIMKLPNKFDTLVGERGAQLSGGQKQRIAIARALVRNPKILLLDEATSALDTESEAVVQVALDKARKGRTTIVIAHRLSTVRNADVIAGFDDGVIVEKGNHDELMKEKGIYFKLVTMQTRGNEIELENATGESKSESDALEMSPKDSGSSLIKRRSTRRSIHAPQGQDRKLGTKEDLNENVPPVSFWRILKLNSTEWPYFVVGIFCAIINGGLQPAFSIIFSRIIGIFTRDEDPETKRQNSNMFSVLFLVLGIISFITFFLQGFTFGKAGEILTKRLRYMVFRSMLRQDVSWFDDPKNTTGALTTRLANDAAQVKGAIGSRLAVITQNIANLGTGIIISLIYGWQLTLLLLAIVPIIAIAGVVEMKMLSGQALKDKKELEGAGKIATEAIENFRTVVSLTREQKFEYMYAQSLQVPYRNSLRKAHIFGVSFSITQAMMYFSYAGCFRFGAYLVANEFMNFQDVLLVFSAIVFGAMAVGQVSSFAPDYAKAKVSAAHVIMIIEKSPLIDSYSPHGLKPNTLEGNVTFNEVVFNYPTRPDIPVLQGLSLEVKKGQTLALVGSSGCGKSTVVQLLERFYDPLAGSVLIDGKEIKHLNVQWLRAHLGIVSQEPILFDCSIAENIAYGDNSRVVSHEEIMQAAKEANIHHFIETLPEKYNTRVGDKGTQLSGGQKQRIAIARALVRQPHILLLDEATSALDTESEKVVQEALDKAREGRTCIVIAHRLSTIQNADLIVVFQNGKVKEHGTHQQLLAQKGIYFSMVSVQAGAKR
Method: Canine ileal enteroids were passaged into 15 μL per well of […] ® in chambered cover glass system (Lab-Tek, Chambered Coverglass 8 well) and cultured with 300 μL per well of CMGF+ media for 2 days. […] Rh123 transport experiments were divided into: (1) Control [CTR] […] Enteroids were treated for 30 min and then washed with room-temperature PBS.
Confocal microscopy (SP5 X MP LAS X; Leica) at the Iowa State University Roy J. Carver High Resolution Microscopy Facility was used to acquire images to detect green fluorescence within the luminal aspect of the enteroids. Fluorescence intensity was controlled by the luminal area to control for the size variation of the enteroids and quantified using the ImageJ software.
Student's t-tests were used to compare study groups (CTR vs. TRT) for the various doses of Rh123. The Benjamini-Hochberg Procedure was performed to control the risk of false positive for multiple comparisons. All statistical analyses were perform using GraphPad Prism 8.2.1 (San Diego, Calif.) and R 3.5.1. P<0.05 were considered as statistically significant.

`CN1C(C(=O)Nc2ccccn2)=C(O)c2ccccc2S1(=O)=O` [Piroxicam] was tested, and the “cell viability (MTT)” value (TCC organoids [1]; 1-10 μM, 48 hours or 4 days, organoid type not restated) was ≥ 80 % of control, the “decrease of Ki-67 staining” value (TCC organoids [2]; 0.1 μM Piroxicam) was 50% and the “increase of Ki-67 IHC staining” value (TCC organoids [2]; 1-10 μM Piroxicam) was 2-3 fold.
For `NCCc1ccc(O)c(O)c1` [Dopamine], the “increase of Ki-67 IHC staining” value (TCC organoids [2]; 0.1, 1, 10 μM) was “about 2 fold”.
In the case of `N.N.[Cl][Pt][Cl]` [cisplatin], the “metabolic activity of UC organoids (MTT)” value (canine UC organoids) is reported as “reduced metabolic activity”.
For `Oc1ccc(C2CNCCc3c2cc(O)c(O)c3Cl)cc1` (centres unmarked) [Fenoldopam], the “decrease of TCC organoid Ki-67 (proliferation)” value (TCC organoids [2]; 1 nM Fenoldopam) was “about 50%”, the “effect on TCC organoid Ki-67 (proliferation)” value (TCC organoids [2]; 10 μM Fenoldopam) was “did not have much effect” and the “lumens/holes in the TCC organoids” value (TCC organoids [3]) was “getting bigger”.
`NS(=O)(=O)NCCNc1nonc1C(=NO)Nc1ccc(F)c(Br)c1` [Epacadostat] was tested, and the “TCC cell viability (MTT assay)” value (TCC organoids [1]; 1 μM Epacadostat, 48 hours) was “about 80 % of control” and the “decrease of TCC cell viability (MTT assay)” value (TCC organoids [1]; other doses of Epacadostat, 48 hours) was “not at the other doses”.
In the case of `COc1cccc2c1C(=O)c1c(O)c3c(c(O)c1C2=O)C[C@@](O)(C(=O)CO)C[C@@H]3O[C@H]1C[C@H](N)[C@H](O)[C@H](C)O1` [Doxorubicin], the “TCC organoid cell viability (MTT)” value (TCC organoids [1]; 10 μM doxorubicin) is reported as 50 % of control, the “effect on TCC organoid cell viability (MTT), other runs” value (TCC organoids [1]; sometimes observed) is reported as “small 20% effect or no effect” and the “Ki-67 IHC (proliferation)” value (TCC organoids [2]; 0.1 μM Dox, once) is reported as 10-20 % of control.
In the case of `COc1cc(OC)cc(N(CCNC(C)C)c2ccc3ncc(-c4cnn(C)c4)nc3c2)c1` [Erdafitinib], the “effect on TCC cell viability (MTT assay)” value (TCC organoids [1]; 1-10 μM) is reported as “no effect”.
With `CC[C@]1(O)C[C@@H]2CN(CCc3c([nH]c4ccccc34)[C@@](C(=O)OC)(c3cc4c(cc3OC)N(C)[C@H]3[C@@](O)(C(=O)OC)[C@H](OC(C)=O)[C@]5(CC)C=CCN6CC[C@]43[C@@H]65)C2)C1` [Vinblastine] the “effect on TCC cell viability (MTT assay)” value (TCC organoids [1]; other plate, dose not given) was “slight stimulatory effect”.
Rhodamine 123 [Rh123] was tested, and the Rh123 luminal transportation (P-gp) was “significant dose response”.
`C[C@H](NC(=O)c1c(C(F)F)nn(C)c1Oc1cccc(C(F)(F)F)c1)c1ccc(C(=O)O)cc1` [E-7046] was tested, and the “effect on TCC cell viability (MTT assay)” value (TCC organoids [1]; other plate, dose not given) was “slight stimulatory effect”.
